Earlier results as cited in patent US8415392B2, “Combined use of L-carnitine, acetyle L-carnitine and propionyl L-carnitine for the treatment of oligoasthenoteratospermia” (Sigma-Tau Industrie Farmaceutiche Riunite, S.p.A., priority 2002, dated 2013).

How the values were obtained:
[1] = test system: patients with idiopathic asthenospermia; conditions: L-carnitine administration
[2] = test system: patients with idiopathic oligoastheno-spermia; conditions: acetyl L-carnitine
[3] = Fertilität 4.1-4, 1988, L-carnitine therapy

| Structure (SMILES) | sperm motility (infertile patients; Andrologia 26:155-159, 1994, quantitative and qualitative) | carnitine levels in the spermatozoa (infertile patients; [3]) | sperm motility and sperm count (infertile patients; [3]) | sperm quality (infertile patients; Loumbakis et al. 1996, preliminary data) | patients in whom sperm motility improved and sperm count increased [1] | sperm density [2] | sperm motility [2] |
| --- | --- | --- | --- | --- | --- | --- | --- |
| C[N+](C)(C)C[C@H](O)CC(=O)[O-] [L-carnitine] | significant improvement | increase | increase | may have a positive effect | 37 out of 47 | – | – |
| CC(=O)O[C@H](CC(=O)[O-])C[N+](C)(C)C [acetyl L-carnitine] | – | – | – | – | – | no effect | progressive increase |
